This passage reports DC50 results from patent US20220370416A1, “COMPOUNDS AND METHODS FOR TARGETED DEGRADATION OF KRAS” (Arvinas Operations, Inc., priority 2020, published 2022).

The target of the experiment is HiBit-KRAS^G12C (Homo sapiens, UniProt P01116, G12C). Description: HiBit degradation assay in SW1573 HiBit-KRas^G12C cells. Format: cell-based. More on the design: expressed in transfected cells; host or cells: SW1573 (clone E6), modified pcDNA3.1 vector, TK promoter. As to conditions: SW1573 HiBit-KRas^G12C, 0.1% DMSO, 24 hours; read-out: KRas^G12C-HIBit (SW1573; 0.1% DMSO) DC50*. Here is the method: Reagents. SW1573 (CRL-2170) and MiaPaCa-2 (CRL-1420) cells were purchased from ATCC. Both cell lines are […] for the G12C mutation in KRAS. SW1573 cells were cultured in DMEM+F12+Glutamax (+Sodium Bicarbonate, +sodium pyruvate, Thermofisher scientific, #10565) supplemented with 10% FBS (Thermofisher scientific, #2060357) and 1% Antibiotic-Antimycotic (Thermofisher scientific, #15240096). MiaPaCa-2 cells were cultured in DMEM+Glutamax media (Thermofisher scientific, #10566) supplemented with 10% FBS (Thermofisher scientific, #2060357) and 1% Antibiotic-Antimycotic (Thermofisher scientific, #15240096). For degradation assays, 384 well plates were purchased from Corning (Corning® CellBIND® 384-well Flat Clear Bottom Black Polystyrene Microplates, Low Flange, #3770). Gambogic acid was purchased from Selleckchem (#S2448). Alamar blue was purchased from Thermofisher scientific (A50101) and used according to manufacturer instructions. The Nano-Glo® HiBit Lytic Detection System and Nano-Glo® HiBit Blotting System were purchased from Promega (#N3050 and #N2410) and used according to manufacturer instructions.
HiBit-KRAS^G12C, sequence (P01116 1-186 isoform P01116-2 G12C limits assumed): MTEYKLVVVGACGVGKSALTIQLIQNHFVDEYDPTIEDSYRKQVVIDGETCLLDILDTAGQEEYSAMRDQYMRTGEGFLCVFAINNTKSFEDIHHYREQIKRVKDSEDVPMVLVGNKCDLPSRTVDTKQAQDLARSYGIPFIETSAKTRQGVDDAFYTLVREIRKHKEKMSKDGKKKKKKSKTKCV
To create the SW1573 HiBit-KRAS^G12C cell line, the nucleotide sequence encoding the 11 amino acid HiBit tag from Promega (Schwinn, M. K. et al. (2018) CRISPR-mediated tagging of endogenous proteins with a luminescent peptide. ACS Chem. Biol. 13(2), 467-474) was appended to the N-terminus of the KRAS^G12C coding sequence. This synthesized DNA was cloned into a modified pcDNA3.1 vector under the control of the thymidine kinase (TK) promoter. This HiBit-KRAS^G12C expressing plasmid was transfected into parental SW1573 cells and colonies were selected using 400 μg/mL zeocin. The resulting clonal lines were screened for expression of HiBit-KRAS^G12C protein using Nano-Glo® HiBit Blotting System. A luminescent band of the correct size for HiBit-KRAS^G12C was detected in several clones. Clone E6 was selected for further studies.
Either SW1573 HiBit-KRas^G12C or MiaPaCa-2 HiBit-KRas^G12C cells were plated at 9000 cells/well in a 384 well plate (Corning #3770). Exemplary heterobifunctional molecules and positive controls were diluted in the appropriate cell media and applied to the plated cells resulting in a final concentration titration of 10 μM to 20 nM in either 0.1% or 0.5% dimethyl sulfoxide (DMSO). Gambogic acid was used as a positive control for cytotoxicity and titrated from 10 μM to 78 nM. All assays were performed in triplicate. Cells were treated with compounds for 24 hours at 37° C. in an incubator containing 5% CO2. Following treatment, alamar blue was used to determine if any compounds led to a loss in cell viability after 24 hours. The 10× alamar blue reagent was added to a final concentration of 1× as recommended by the manufacturer and cells were returned to the incubator for 4 hours. Plates were then allowed to equilibrate to room temperature and fluorescence was measured using a Perkin-Elmer EnVision. After completion of the fluorescence read, the liquid from each well was removed and the cells were washed with PBS. The Nano-Glo® HiBiT detection reagent was prepared according to the manufacturer's instructions and added to each well after the PBS wash was removed. Following incubation at room temperature for 45 minutes, the luminescence was read using the ultra-sensitive luminescence aperture on the Envision instrument.
Fluorescence values from the alamar blue treatment were normalized to the DMSO only control for each compound titration. We hypothesized that compounds that led to a ≥50% loss in cell viability of the KRAS-independent SW1573 HiBit-KRas^G12C cells were likely generally cytotoxic and loss of HiBit-KRAS^G12C signal from these compounds may be due to lower cell number and not specific KRAS^G12C degradation. These points were therefore excluded from the data analysis for degradation. […]
For orientation: The HiBiT peptide binds its large partner to form an active luciferase.
Consider `C=CC(=O)N1CCN(c2nc(OCCN3CCC(COCC(=O)N[C@H](C(=O)N4C[C@H](O)C[C@H]4C(=O)N[C@@H](C)c4ccc(-c5scnc5C)cc4)C(C)(C)C)CC3)nc3c(F)c(-c4cc(O)cc5ccccc45)c(Cl)cc23)CC1` (atropisomer, axis not shown) [Compound 10, (2S,4R)-1-[(2S)-2-(2-{[1-(2-{[6-chloro-8-fluoro-7-(3-hydroxynaphthalen-1-yl)-4-[4-(prop-2-enoyl)piperazin-1-yl]quinazolin-2-yl]oxy}ethyl)piperidin-4-yl]methoxy}acetamido)-3,3-dimethylbutanoyl]-4-hydroxy-N-[(1S)-1-[4-(4-methyl-1,3-thiazol-5-yl)phenyl]ethyl]pyrrolidine-2-carboxamide], for which the DC50 is more than 1 µM.

In the case of `C=CC(=O)N1CCN(c2nc(O[C@H](C)CN3CCC(OCCOCC(=O)N[C@H](C(=O)N4C[C@H](O)C[C@H]4C(=O)N[C@@H](C)c4ccc(-c5scnc5C)cc4)C(C)(C)C)CC3)nc3c(F)c(-c4cc(O)cc5ccccc45)c(Cl)cc23)CC1` (atropisomer, axis not shown) [Compound 85, (2S,4R)-1-[(2S)-2-{2-[2-({1-[(2R)-2-{[6-chloro-8-fluoro-7-(3-hydroxynaphthalen-1-yl)-4-[4-(prop-2-enoyl)piperazin-1-yl]quinazolin-2-yl]oxy}propyl]piperidin-4-yl}oxy)ethoxy]acetamido}-3,3-dimethylbutanoyl]-4-hydroxy-N-[(1S)-1-[4-(4-methyl-1,3-thiazol-5-yl)phenyl]ethyl]pyrrolidine-2-carboxamide], the DC50 was more than 1 µM.

Turning to `C=C(F)C(=O)N1CCN(c2nc(OCCN3CCC(OCCOc4cc([C@@H](C(=O)N5C[C@H](O)C[C@H]5C(=O)N[C@@H](C)c5ccc(-c6scnc6C)cc5)C(C)C)on4)CC3)nc3c(F)c(-c4cc(O)cc5ccccc45)c(Cl)cc23)C[C@@H]1CC#N` [Compound 1, (2S,4R)-1-[(2S)-2-{3-[2-({1-[2-({6-chloro-4-[(3S)-3-(cyanomethyl)-4-(2-fluoroprop-2-enoyl)piperazin-1-yl]-8-fluoro-7-(3-hydroxynaphthalen-1-yl)quinazolin-2-yl}oxy)ethyl]piperidin-4-yl}oxy)ethoxy]-1,2-oxazol-5-yl}-3-methylbutanoyl]-4-hydroxy-N-[(1S)-1-[4-(4-methyl-1,3-thiazol-5-yl)phenyl]ethyl]pyrrolidine-2-carboxamide], the DC50 was more than 1 µM.

`C=CC(=O)N1CCN(c2nc(OCCN3CCC(OCCOc4cc([C@H](C(=O)N5C[C@@H](O)C[C@H]5C(=O)N[C@@H](C)c5ccc(-c6scnc6C)cc5)C(C)C)on4)CC3)nc3c(F)c(-c4cc(O)cc5ccccc45)c(Cl)cc23)C[C@@H]1CC#N` [Compound 2, (2S,4S)-1-[(2R)-2-{3-[2-({1-[2-({6-chloro-4-[(3S)-3-(cyanomethyl)-4-(prop-2-enoyl)piperazin-1-yl]-8-fluoro-7-(3-hydroxynaphthalen-1-yl)quinazolin-2-yl}oxy)ethyl]piperidin-4-yl}oxy)ethoxy]-1,2-oxazol-5-yl}-3-methylbutanoyl]-4-hydroxy-N-[(1S)-1-[4-(4-methyl-1,3-thiazol-5-yl)phenyl]ethyl]pyrrolidine-2-carboxamide]: the DC50 is more than 1 µM. As to `C=CC(=O)N1CCN(c2nc(OCCN3CCC(COCC(=O)N[C@H](C(=O)N4C[C@@H](O)C[C@H]4C(=O)N[C@@H](C)c4ccc(-c5scnc5C)cc4)C(C)(C)C)CC3)nc3c(F)c(-c4cc(O)cc5ccccc45)c(Cl)cc23)CC1` [Compound 8, (2S,4S)-1-[(2S)-2-(2-{[1-(2-{[6-chloro-8-fluoro-7-(3-hydroxynaphthalen-1-yl)-4-[4-(prop-2-enoyl)piperazin-1-yl]quinazolin-2-yl]oxy}ethyl)piperidin-4-yl]methoxy}acetamido)-3,3-dimethylbutanoyl]-4-hydroxy-N-[(1S)-1-[4-(4-methyl-1,3-thiazol-5-yl)phenyl]ethyl]pyrrolidine-2-carboxamide], the DC50 is more than 1 µM. Take `C=C(F)C(=O)N1CCN(c2nc(O[C@H](C)CN3CCC(COc4cc([C@H](C(=O)N5C[C@H](O)C[C@H]5C(=O)N[C@@H](C)c5ccc(-c6scnc6C)cc5)C(C)C)on4)CC3)nc3c(F)c(-c4cc(O)cc5ccccc45)c(Cl)cc23)CC1` [Compound 14, (2S,4R)-1-[(2R)-2-[3-({1-[(2R)-2-({6-chloro-8-fluoro-4-[4-(2-fluoroprop-2-enoyl)piperazin-1-yl]-7-(3-hydroxynaphthalen-1-yl)quinazolin-2-yl}oxy)propyl]piperidin-4-yl}methoxy)-1,2-oxazol-5-yl]-3-methylbutanoyl]-4-hydroxy-N-[(1S)-1-[4-(4-methyl-1,3-thiazol-5-yl)phenyl]ethyl]pyrrolidine-2-carboxamide]: the DC50 was more than 1 µM. For the compound `C=C(F)C(=O)N1CCN(c2nc(O[C@H](C)CN3CCC(COc4cc([C@@H](C(=O)N5C[C@H](O)C[C@H]5C(=O)N[C@@H](C)c5ccc(-c6scnc6C)cc5)C(C)C)on4)CC3)nc3c(F)c(-c4cc(O)cc5ccccc45)c(Cl)cc23)CC1` [Compound 18, (2S,4R)-1-[(2S)-2-[3-({1-[(2R)-2-({6-chloro-8-fluoro-4-[4-(2-fluoroprop-2-enoyl)piperazin-1-yl]-7-(3-hydroxynaphthalen-1-yl)quinazolin-2-yl}oxy)propyl]piperidin-4-yl}methoxy)-1,2-oxazol-5-yl]-3-methylbutanoyl]-4-hydroxy-N-[(1S)-1-[4-(4-methyl-1,3-thiazol-5-yl)phenyl]ethyl]pyrrolidine-2-carboxamide], the DC50 was more than 1 µM. For the compound `C=CC(=O)N1CCN(c2nc(O[C@H](C)CN3CCC(COc4cc([C@H](C(=O)N5C[C@H](O)C[C@H]5C(=O)N[C@@H](C)c5ccc(-c6scnc6C)cc5)C(C)C)on4)CC3)nc3c(F)c(-c4cc(O)cc5ccccc45)c(Cl)cc23)CC1` [Compound 19, (2S,4R)-1-[(2R)-2-[3-({1-[(2R)-2-{[6-chloro-8-fluoro-7-(3-hydroxynaphthalen-1-yl)-4-[4-(prop-2-enoyl)piperazin-1-yl]quinazolin-2-yl]oxy}propyl]piperidin-4-yl}methoxy)-1,2-oxazol-5-yl]-3-methylbutanoyl]-4-hydroxy-N-[(1S)-1-[4-(4-methyl-1,3-thiazol-5-yl)phenyl]ethyl]pyrrolidine-2-carboxamide], the DC50 is more than 1 µM. With `C=CC(=O)N1CCN(c2nc(OCCN3CCC(OCCOCC(=O)N[C@H](C(=O)N4C[C@H](O)C[C@H]4C(=O)N[C@@H](C)c4ccc(-c5scnc5C)cc4)C(C)(C)C)CC3)nc3c(F)c(-c4cccc5cccc(C)c45)c(Cl)cc23)C[C@@H]1CC#N` [Compound 23, (2S,4R)-1-[(2S)-2-{2-[2-({1-[2-({6-chloro-4-[(3S)-3-(cyanomethyl)-4-(prop-2-enoyl)piperazin-1-yl]-8-fluoro-7-(8-methylnaphthalen-1-yl)quinazolin-2-yl}oxy)ethyl]piperidin-4-yl}oxy)ethoxy]acetamido}-3,3-dimethylbutanoyl]-4-hydroxy-N-[(1S)-1-[4-(4-methyl-1,3-thiazol-5-yl)phenyl]ethyl]pyrrolidine-2-carboxamide] the figure was more than 1 µM.
